Here are results for 21 compounds from article PMC8348983 (International Journal of Molecular Sciences, 2021).

“Also recorded” adds a separate entry of the source. Like-named read-outs stand apart in the source and are kept apart here.

The term IC50 denotes the concentration needed to halve the response being measured. The inhibition is the percentage by which the read-out fell short of the control.

In test [1] the target is T1, human recombinant AChE (Homo sapiens, UniProt P22303). In words: biochemical. The format is biochemical. Particulars: for IC50: mean ± SEM of three independent measurements, each in triplicate, read-out: IC50, hAChE ± SEM; for inhibition at 100 µM: tested at 100 µM compound concentration, read-out: %Inhibition hAChE ± SEM.
T1 sequence (P22303 32-614): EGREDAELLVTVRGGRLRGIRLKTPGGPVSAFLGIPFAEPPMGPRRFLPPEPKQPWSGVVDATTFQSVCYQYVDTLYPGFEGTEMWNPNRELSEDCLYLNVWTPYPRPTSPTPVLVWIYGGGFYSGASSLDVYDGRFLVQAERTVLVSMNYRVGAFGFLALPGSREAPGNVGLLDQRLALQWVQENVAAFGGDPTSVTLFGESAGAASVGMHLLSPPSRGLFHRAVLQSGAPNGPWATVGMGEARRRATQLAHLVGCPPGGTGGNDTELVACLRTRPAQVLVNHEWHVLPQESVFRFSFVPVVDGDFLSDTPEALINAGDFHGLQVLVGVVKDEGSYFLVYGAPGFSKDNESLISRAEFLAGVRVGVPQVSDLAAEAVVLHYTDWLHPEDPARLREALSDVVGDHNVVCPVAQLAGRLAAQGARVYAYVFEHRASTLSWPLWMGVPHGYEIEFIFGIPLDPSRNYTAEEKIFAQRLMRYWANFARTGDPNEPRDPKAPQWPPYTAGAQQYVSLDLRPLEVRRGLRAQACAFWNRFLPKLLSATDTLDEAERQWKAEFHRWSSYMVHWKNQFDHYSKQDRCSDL
Another test concerns the target T2, human plasma BChE (Homo sapiens, UniProt P06276).
T2 construct: was used as a source of BChE and was prepared from heparinized human blood; from tissue; host or cells: human plasma from heparinized human blood
In words: biochemical. It counts as biochemical. Particulars: for IC50: mean ± SEM of three independent measurements, each in triplicate, read-out: IC50, hBuChE ± SEM; for SI for hBuChE: ratio hAChE IC50/hBuChE IC50; for inhibition at 100 µM: tested at 100 µM compound concentration, read-out: % Inhibition hBuChE ± SEM.

In test [2] the target is POP (prolyloligopeptidase) (Homo sapiens, UniProt P48147). In words: POP inhibition assay. It counts as biochemical. The following applies: bounds marked f: highest tested concentration due to low solubility in buffer; read-out: IC50, POP ± SEM. The method, then:
The previously applied procedure was used. Detailed description of the assay can be found in Supplementary Materials.
POP (EC 3.4.21.26) was dissolved in phosphate-buffered saline (PBS; 0.01 M Na/K phosphate buffer, […]
The assay was performed in standard polystyrene 96-well microplates with a flat and clear bottom.
Stock solutions of tested compounds were prepared in DMSO (10 mM). Dilutions (10−3 to 10−7 M) were prepared from the stock solution with deionized H2O; the control was performed with the same DMSO concentration. POP substrate, (Z)-Gly-Pro-p-nitroanilide, was dissolved in 50% 1,4-dioxane (5 mM). For each reaction, PBS (170 μL), tested compound (5 μL), and POP (5 μL) were incubated for 5 min at 37 °C. Then, substrate (20 μL) was added, and the microplate was incubated for 30 min at 37 °C. The formation of p-nitroanilide, directly proportional to the POP activity, was measured […]
Synergy 2, BioTek Instruments, Winooski, VT). The inhibition potency of tested compounds was calculated by nonlinear regression analysis and was expressed as an IC50 value (concentration of inhibitor which causes 50% POP inhibition). […]

Test [3] deals with T1, human recombinant AChE. Also noted: method as in PMID 32455879. The following applies: template alkaloids, Figure 1; read-out: IC50,hAChE; cited from earlier work.

T2 sequence (P06276 29-602): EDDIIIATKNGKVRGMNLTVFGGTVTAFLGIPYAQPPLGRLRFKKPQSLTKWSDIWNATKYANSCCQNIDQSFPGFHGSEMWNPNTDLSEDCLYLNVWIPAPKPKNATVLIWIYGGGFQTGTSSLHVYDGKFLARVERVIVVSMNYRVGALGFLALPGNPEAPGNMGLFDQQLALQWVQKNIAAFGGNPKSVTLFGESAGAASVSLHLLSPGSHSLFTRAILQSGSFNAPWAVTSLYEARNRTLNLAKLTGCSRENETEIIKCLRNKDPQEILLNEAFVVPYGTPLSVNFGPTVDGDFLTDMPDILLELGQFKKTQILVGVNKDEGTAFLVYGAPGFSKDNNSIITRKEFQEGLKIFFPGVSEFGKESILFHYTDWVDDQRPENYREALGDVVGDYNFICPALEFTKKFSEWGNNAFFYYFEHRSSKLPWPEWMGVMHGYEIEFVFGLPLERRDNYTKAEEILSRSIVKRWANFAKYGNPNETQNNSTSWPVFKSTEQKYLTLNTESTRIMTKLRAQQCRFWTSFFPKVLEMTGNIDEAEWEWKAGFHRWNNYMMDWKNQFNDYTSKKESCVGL
Sequence of POP (prolyloligopeptidase) (P48147 whole entry): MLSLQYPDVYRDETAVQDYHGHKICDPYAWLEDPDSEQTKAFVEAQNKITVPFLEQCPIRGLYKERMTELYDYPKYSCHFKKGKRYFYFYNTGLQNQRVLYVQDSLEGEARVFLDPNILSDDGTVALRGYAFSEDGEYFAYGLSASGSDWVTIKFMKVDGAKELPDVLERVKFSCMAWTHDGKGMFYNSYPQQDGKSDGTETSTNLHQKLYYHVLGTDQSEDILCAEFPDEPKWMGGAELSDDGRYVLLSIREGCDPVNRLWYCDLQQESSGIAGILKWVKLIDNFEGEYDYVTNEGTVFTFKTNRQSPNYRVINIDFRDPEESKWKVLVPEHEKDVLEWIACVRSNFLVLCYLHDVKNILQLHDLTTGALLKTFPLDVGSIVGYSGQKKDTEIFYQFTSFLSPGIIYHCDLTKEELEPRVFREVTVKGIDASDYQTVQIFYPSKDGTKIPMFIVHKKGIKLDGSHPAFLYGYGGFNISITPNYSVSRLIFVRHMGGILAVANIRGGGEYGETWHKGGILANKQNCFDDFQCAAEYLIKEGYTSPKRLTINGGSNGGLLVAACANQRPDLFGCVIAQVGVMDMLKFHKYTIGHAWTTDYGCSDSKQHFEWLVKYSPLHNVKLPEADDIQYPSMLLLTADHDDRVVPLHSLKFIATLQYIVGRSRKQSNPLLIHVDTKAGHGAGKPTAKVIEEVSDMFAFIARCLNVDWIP

`COc1cc(CNCCc2ccc(O)cc2)ccc1OCc1ccccc1` [Compound 1, N-(4-benzyloxy-3-methoxybenzyl)-2-(4-hydroxyphenyl)ethan-1-amine]: the IC50 on human recombinant AChE [1] was above 100 µM; at human plasma BChE, 0.36 ± 0.03 µM; in test [2], 186 ± 14 µM. For the same compound, the inhibition at 100 µM turned out to be 30.4 ± 2.1% on human recombinant AChE [1] and 98.7 ± 0.3% on human plasma BChE. On human plasma BChE, the “SI for hBuChE” value is given as above 277.
Consider `COc1ccc(CNCCc2ccc(O)cc2)cc1OCc1ccccc1` [Compound 2, N-(3-benzyloxy-4-methoxybenzyl)-2-(4-hydroxyphenyl)ethan-1-amine], for which, on human recombinant AChE [1], the IC50 was above 100 µM and the inhibition at 100 µM came to 35.8 ± 1.2%. In addition, at human plasma BChE, the IC50 turned out to be 0.29 ± 0.02 µM, the “SI for hBuChE” value is reported as above 348 and the inhibition at 100 µM stood at 97.7 ± 0.5%. Moreover, the IC50 in test [2] is above 79 µM.
As for `C=CCN(CCc1ccc(O)cc1)Cc1ccc(OCc2ccccc2)c(OC)c1` [Compound 3, N-allyl-N-(4-benzyloxy-3-methoxybenzyl)-2-(4-hydroxyphenyl)ethan-1-amine], at human recombinant AChE [1], the half-maximal inhibitory concentration (IC50) is above 100 µM and the inhibition at 100 µM is 20.8 ± 0.9%. For the same compound, at human plasma BChE, the 50% inhibitory concentration (IC50) stood at 0.61 ± 0.04 µM, the “SI for hBuChE” value is above 163 and the inhibition at 100 µM is 96.8 ± 1.1%. Moreover, in test [2], the IC50 was above 200 µM.
For the compound `C=CCN(CCc1ccc(O)cc1)Cc1ccc(OC)c(OCc2ccccc2)c1` [Compound 4, N-allyl-N-(3-benzyloxy-4-methoxybenzyl)-2-(4-hydroxyphenyl)ethan-1-amine], the IC50 was above 100 µM on human recombinant AChE [1], 0.25 ± 0.01 µM on human plasma BChE and above 79 µM in test [2]. Moreover, the values for the inhibition at 100 µM on human recombinant AChE [1] and on human plasma BChE were 45.2 ± 2.4% and 97.9 ± 0.6%, respectively. Further, the “SI for hBuChE” value on human plasma BChE is above 394.
On to `C=CCOc1ccc(CCN(CC=C)Cc2ccc(OCc3ccccc3)c(OC)c2)cc1` [Compound 5, N-allyl-N-(4-benzyloxy-3-methoxybenzyl)-2-(4-allyloxyphenyl)ethan-1-amine], for which, at human recombinant AChE [1], the IC50 is above 100 µM and the inhibition at 100 µM amounted to 3.4 ± 0.5%. Also, the “hAChE inhibition potency (in words)” value on human recombinant AChE [1] (screening at 100 µM) is “no inhibition potency”. Besides, at human plasma BChE, the 50% inhibitory concentration (IC50) is above 100 µM and the inhibition at 100 µM worked out at 38.9 ± 0.9%. Moreover, the “hBuChE inhibition potency (in words)” value on human plasma BChE (screening at 100 µM) is “no inhibition potency; also recorded: inactive”.
In the case of `COc1cc(CNCCc2ccccc2)ccc1OCc1ccccc1` [Compound 7, N-(4-benzyloxy-3-methoxybenzyl)-2-phenylethan-1-amine], on human recombinant AChE [1], the 50% inhibitory concentration (IC50) was above 100 µM and the inhibition at 100 µM was found to be 23.4 ± 2.5%. On human plasma BChE, the IC50 is 1.28 ± 0.05 µM, the “SI for hBuChE” value is above 78 and the inhibition at 100 µM is 94.5 ± 0.9%.
Take `COc1ccc(CNCCc2ccccc2)cc1OCc1ccccc1` [Compound 8, N-(3-benzyloxy-4-methoxybenzyl)-2-phenylethan-1-amine]: at human recombinant AChE [1], the 50% inhibitory concentration (IC50) was above 100 µM and the inhibition at 100 µM was determined as 12.6 ± 0.5%. Further, at human plasma BChE, the IC50 is 1.1 ± 0.05 µM, the “SI for hBuChE” value is recorded as above 90 and the inhibition at 100 µM is 96.6 ± 0.4%.
Regarding `C=CCN(CCc1ccccc1)Cc1ccc(OCc2ccccc2)c(OC)c1` [Compound 9, N-allyl-N-(4-benzyloxy-3-methoxybenzyl)-2-phenylethan-1-amine], at human recombinant AChE [1], the IC50 is above 100 µM and the inhibition at 100 µM stood at 18.8 ± 1.9%. In addition, on human plasma BChE, the IC50 was determined as 5.19 ± 0.28 µM, the “SI for hBuChE” value is on record as above 19 and the inhibition at 100 µM was found to be 74.9 ± 2.4%.
Consider `C=CCN(CCc1ccccc1)Cc1ccc(OC)c(OCc2ccccc2)c1` [Compound 10, N-allyl-N-(3-benzyloxy-4-methoxybenzyl)-2-phenylethan-1-amine], for which, on human recombinant AChE [1], the half-maximal inhibitory concentration (IC50) was 21.5 µM and the inhibition at 100 µM came to 72.4 ± 1.1%. Moreover, at human plasma BChE, the IC50 was 1.17 ± 0.04 µM, the “SI for hBuChE” value was 18 and the inhibition at 100 µM was 92 ± 2.4%.
On to `COc1ccc(CCNCc2ccc(OCc3ccccc3)c(OC)c2)cc1` [Compound 11, {[4-(benzyloxy)-3-methoxyphenyl]methyl}[2-(4-methoxyphenyl)ethyl]amine], for which, at human recombinant AChE [1], the IC50 is above 100 µM and the inhibition at 100 µM is 27.9 ± 0.7%. In addition, on human plasma BChE, the IC50 turned out to be 2.39 ± 0.27 µM, the “SI for hBuChE” value is above 41 and the inhibition at 100 µM came to 93.5 ± 0.3%.
As for `COc1ccc(CCNCc2ccc(OC)c(OCc3ccccc3)c2)cc1` [Compound 12, N-(3-benzyloxy-4-methoxybenzyl)-2-(4-methoxyphenyl)ethan-1-amine], on human recombinant AChE [1], the IC50 is above 100 µM and the inhibition at 100 µM was 0%. Moreover, at human plasma BChE, the IC50 stood at 1.12 ± 0.11 µM, the “SI for hBuChE” value is listed as above 89 and the inhibition at 100 µM is 94.6 ± 0.6%.
Turning to `C=CCN(CCc1ccc(OC)cc1)Cc1ccc(OCc2ccccc2)c(OC)c1` [Compound 13, N-allyl-N-(4-benzyloxy-3-methoxybenzyl)-2-(4-methoxyphenyl)ethan-1-amine], at human recombinant AChE [1], the half-maximal inhibitory concentration (IC50) was above 100 µM and the inhibition at 100 µM came to 32.7 ± 1.6%. Moreover, at human plasma BChE, the IC50 amounted to 2.72 ± 0.5 µM, the “SI for hBuChE” value is given as above 37 and the inhibition at 100 µM is 90.9 ± 1.5%.
In the case of `C=CCN(CCc1ccc(OC)cc1)Cc1ccc(OC)c(OCc2ccccc2)c1` [Compound 14, N-allyl-N-(3-benzyloxy-4-methoxybenzyl)-2-(4-methoxyphenyl)ethan-1-amine], at human recombinant AChE [1], the concentration for half-maximal inhibition (IC50) is 37.7 µM and the inhibition at 100 µM was found to be 60.9 ± 0.4%. Moreover, on human plasma BChE, the IC50 stood at 0.38 ± 0.01 µM, the “SI for hBuChE” value was 98 and the inhibition at 100 µM came out at 95.8 ± 0.9%.
With `CCOc1cc(CNCCc2ccc(O)cc2)ccc1OC` [Compound 15, N-(3-ethoxy-4-methoxybenzyl)-2-(4-hydroxyphenyl)ethan-1-amine], at human recombinant AChE [1], the IC50 is above 100 µM and the inhibition at 100 µM was 25.8 ± 1.3%. Besides, on human plasma BChE, the half-inhibitory concentration (IC50) came out at 15.1 ± 2.34 µM, the “SI for hBuChE” value is given as above 6 and the inhibition at 100 µM is 75.3 ± 0.6%.
The matching figures for `C=CCN(CCc1ccc(O)cc1)Cc1ccc(OC)c(OCC)c1` [Compound 16, N-allyl-N-(3-ethoxy-4-methoxybenzyl)-2-(4-hydroxyphenyl)ethan-1-amine]: above 100 µM, 28.3 ± 1.1%, 1.21 ± 0.08 µM, above 82 and 91.7 ± 0.4%.
For `C=CCOc1ccc(CCN(CC=C)Cc2ccc(OC)c(OCC)c2)cc1` [Compound 17, N-allyl-N-(3-ethoxy-4-methoxybenzyl)-2-(4-allyloxyphenyl)ethan-1-amine], the IC50 is above 100 µM on human recombinant AChE [1] and 9.89 ± 1.37 µM on human plasma BChE. In addition, the inhibition at 100 µM was determined as 29.3 ± 3.9% at human recombinant AChE [1] and 77 ± 1% on human plasma BChE.
Take `CCOc1cc(CNCCc2ccccc2)ccc1OC` [Compound 18, N-(3-ethoxy-4-methoxybenzyl)-2-phenylethan-1-amine]: at human recombinant AChE [1], the half-inhibitory concentration (IC50) was above 100 µM and the inhibition at 100 µM was determined as 0%. Besides, on human plasma BChE, the half-maximal inhibitory concentration (IC50) stood at 41.1 ± 2.6 µM, the “SI for hBuChE” value was above 2 and the inhibition at 100 µM worked out at 60 ± 1.6%.
For the compound `C=CCN(CCc1ccccc1)Cc1ccc(OC)c(OCC)c1` [Compound 19, N-allyl-N-(3-ethoxy-4-methoxybenzyl)-2-phenylethan-1-amine], on human recombinant AChE [1], the half-inhibitory concentration (IC50) was above 100 µM and the inhibition at 100 µM was found to be 5.9 ± 2.1%. Also, on human plasma BChE, the IC50 is 4.63 ± 0.48 µM, the “SI for hBuChE” value was above 22 and the inhibition at 100 µM turned out to be 80.2 ± 0.2%.
Consider `CCOc1cc(CN(CCc2ccccc2)Cc2ccccc2)ccc1OC` [Compound 20, N-benzyl-N-(3-ethoxy-4-methoxybenzyl)-2-phenylethan-1-amine], for which, at human recombinant AChE [1], the IC50 is above 100 µM and the inhibition at 100 µM is 49.5 ± 0.8%. On human plasma BChE, the IC50 stood at 0.69 ± 0.03 µM, the “SI for hBuChE” value is above 145 and the inhibition at 100 µM came out at 82.5 ± 1%.
As to `COc1cc(CN(C)CCc2ccc(O)cc2)c(-c2cccc3c2N(C)CC3)cc1OC` [carltonine A], the IC50 at human recombinant AChE [3] is above 100 µM.
For `CN(CCc1ccc(O)cc1)Cc1cc2c(cc1-c1cccc3c1N(C)CC3)OCO2` [carltonine B], the IC50 at human recombinant AChE [3] was above 100 µM.
